Source: patent US20210101881A1 (Ancureall Pharmaceutical (Shanghai) Co., Ltd., priority 2018, published 2021)
pIC50: −log10 of the molar value. Like-named read-outs stand apart in the source and are kept apart here.

Columns and labels:
Test in all cases: Growth inhibition of CDK9-positive tumor cell line in vitro
[1] = test system: 8305C; type: cell-based; conditions: Human thyroid cancer, read-out: Inhibitory activity (IC50) on growth in vitro, 8305C
Experimental: (§1) Measurement of the Inhibitory Activity of the Present Compound on the Growth of Various Types of CDK9-Positive Tumor Cell Lines In Vitro
(§2) The inventors selected representative CDK9-positive tumor cell lines for further determination of the compound activity. All cell lines used came from ATCC, JCRB, DSMZ and Chinese Academy of Sciences Cell Bank (ZK). Cell culture condition and method were based on the requirements of each cell line. No more than 3 passages were carried out in each culture in vitro. Monoclonal purification and STR identification of the cell line were conducted if necessary.

[2] = test system: AGS; type: cell-based; conditions: Human stomach cancer, read-out: Inhibitory activity (IC50) on growth in vitro, AGS
Experimental: as §1, §2

[3] = test system: B-CPAP; type: cell-based; conditions: BCPAP, Human thyroid cancer, read-out: Inhibitory activity (IC50) on growth in vitro, B-CPAP
Experimental: as §1, §2

[4] = test system: BT-474; type: cell-based; conditions: Human breast cancer, read-out: Inhibitory activity (IC50) on growth in vitro, BT-474
Experimental: as §1, §2

[5] = test system: CA Ski; type: cell-based; conditions: Human cervical cancer, read-out: Inhibitory activity (IC50) on growth in vitro, CA Ski
Experimental: as §1, §2

[6] = test system: DU-145; type: cell-based; conditions: Human prostate cancer, read-out: Inhibitory activity (IC50) on growth in vitro, DU-145
Experimental: as §1, §2

[7] = test system: HuCCT-1; type: cell-based; conditions: Human cholangiocarcinoma, read-out: Inhibitory activity (IC50) on growth in vitro, HuCCT-1
Experimental: as §1, §2

[8] = test system: JIMT-1; type: cell-based; conditions: Human breast cancer, read-out: Inhibitory activity (IC50) on growth in vitro, JIMT-1
Experimental: as §1, §2

[9] = test system: KG-1; type: cell-based; conditions: Human acute myeloid leukemia, read-out: Inhibitory activity (IC50) on growth in vitro, KG-1
Experimental: as §1, §2

[10] = test system: KHM-5M; type: cell-based; conditions: read-out: Inhibitory activity (IC50) on growth in vitro, Human thyroid cancer
Experimental: as §1, §2

[11] = test system: MCF7; type: cell-based; conditions: Human breast cancer, read-out: Inhibitory activity (IC50) on growth in vitro, MCF7
Experimental: as §1, §2

[12] = test system: MX-1; type: cell-based; conditions: MX1, Human breast cancer, read-out: Inhibitory activity (IC50) on growth in vitro, MX-1
Experimental: as §1, §2

[13] = test system: NCI-H1581; type: cell-based; conditions: Human lung cancer, read-out: Inhibitory activity (IC50) on growth in vitro, NCI-H1581
Experimental: as §1, §2

[14] = test system: NCI-H1703; type: cell-based; conditions: Human lung cancer, read-out: Inhibitory activity (IC50) on growth in vitro, NCI-H1703
Experimental: as §1, §2

[15] = test system: NCI-H1781; type: cell-based; conditions: Human lung cancer, read-out: Inhibitory activity (IC50) on growth in vitro, NCI-H1781
Experimental: as §1, §2

[16] = test system: NCI-H1975; type: cell-based; conditions: Human lung cancer, read-out: Inhibitory activity (IC50) on growth in vitro, NCI-H1975
Experimental: as §1, §2

[17] = test system: NCI-H358; type: cell-based; conditions: Human lung cancer, read-out: Inhibitory activity (IC50) on growth in vitro, NCI-H358
Experimental: as §1, §2

[18] = test system: NCI-H460; type: cell-based; conditions: Human lung cancer, read-out: Inhibitory activity (IC50) on growth in vitro, NCI-H460
Experimental: as §1, §2

[19] = test system: NCI-N87; type: cell-based; conditions: Human stomach cancer, read-out: Inhibitory activity (IC50) on growth in vitro, NCI-N87
Experimental: as §1, §2

[20] = test system: PC-9; type: cell-based; conditions: Human lung cancer, read-out: Inhibitory activity (IC50) on growth in vitro, PC-9
Experimental: as §1, §2

[21] = test system: SK-MEL-28; type: cell-based; conditions: Human melanoma, read-out: Inhibitory activity (IC50) on growth in vitro, SK-MEL-28
Experimental: as §1, §2

[22] = test system: TPC-1; type: cell-based; conditions: TPC1, Human thyroid cancer, read-out: Inhibitory activity (IC50) on growth in vitro, TPC-1
Experimental: as §1, §2

[23] = test system: MDA-MB-231; type: cell-based; conditions: Human breast cancer, read-out: Inhibitory activity (IC50) on growth in vitro, MDA-MB-231
Experimental: as §1, §2

[24] = test system: MDA-MB-436; type: cell-based; conditions: Human breast cancer, read-out: Inhibitory activity (IC50) on growth in vitro, MDA-MB-436
Experimental: as §1, §2

[25] = test system: MDA-MB-453; type: cell-based; conditions: Human breast cancer, read-out: Inhibitory activity (IC50) on growth in vitro, MDA-MB-453
Experimental: as §1, §2

[26] = test system: A549; type: cell-based, Human
Experimental: as §1, §2

[27] = Human lung cancer, A549, read-out: Inhibitory activity (IC50) on growth in vitro, A549

Cc1cc(Nc2ncc(Cl)c(-n3cc(C(N)=O)c4ccccc43)n2)ccc1N1CCN(C(C)C)CC1 [Compound 60, 1-{5-chloro-2-[4-(4-isopropyl-piperazin-1-yl)-3-methyl-phenylamino]-pyrimidin-4-yl}-1H-indole-3-carboxamide]
pIC50 [1]: 7.00 to 8.00 | pIC50 [2]: 6.00 to 7.00 | pIC50 [3]: 7.00 to 8.00 | pIC50 [4]: 7.00 to 8.00 | pIC50 [5]: 7.00 to 8.00 | pIC50 [6]: 7.00 to 8.00 | pIC50 [7]: 6.00 to 7.00 | pIC50 [8]: 7.00 to 8.00 | pIC50 [9]: 7.00 to 8.00 | pIC50 [10]: 7.00 to 8.00 | pIC50 [11]: 7.00 to 8.00 | pIC50 [12]: 8.00 to 9.00 | pIC50 [13]: 7.00 to 8.00 | pIC50 [14]: 7.00 to 8.00 | pIC50 [15]: 7.00 to 8.00 | pIC50 [16]: 6.00 to 7.00 | pIC50 [17]: 6.00 to 7.00 | pIC50 [18]: 6.00 to 7.00 | pIC50 [19]: 6.00 to 7.00 | pIC50 [20]: 6.00 to 7.00 | pIC50 [21]: 6.00 to 7.00 | pIC50 [22]: 7.00 to 8.00

NC(=O)c1cn(-c2nc(Nc3cccc(N4CCN(C5CCOCC5)CC4)c3)ncc2F)c2ccccc12 [Compound 140, 1-(5-fluoro-2-{3-[4-(tetrahydro-pyran-4-yl)-piperazin-1-yl]-phenylamino}-pyrimidin-4-yl)-1H-indole-3-carboxamide]
pIC50 [1]: > 9.00 | pIC50 [2]: 8.00 to 9.00 | pIC50 [3]: > 9.00 | pIC50 [4]: > 9.00 | pIC50 [5]: > 9.00 | pIC50 [6]: > 9.00 | pIC50 [7]: 8.00 to 9.00 | pIC50 [8]: > 9.00 | pIC50 [9]: > 9.00 | pIC50 [10]: > 9.00 | pIC50 [11]: > 9.00 | pIC50 [23]: > 9.00 | pIC50 [24]: > 9.00 | pIC50 [25]: > 9.00 | pIC50 [12]: > 9.00 | pIC50 [13]: > 9.00 | pIC50 [14]: > 9.00 | pIC50 [15]: > 9.00 | pIC50 [16]: 8.00 to 9.00 | pIC50 [17]: 8.00 to 9.00 | pIC50 [18]: 8.00 to 9.00 | pIC50 [19]: 8.00 to 9.00 | pIC50 [20]: 8.00 to 9.00 | pIC50 [21]: 8.00 to 9.00 | pIC50 [22]: > 9.00 | pIC50 [26, 27]: 8.00 to 9.00

CC(C)N1CCN(c2cccc(Nc3ncc(F)c(-n4cc(C(N)=O)c5ccccc54)n3)c2)CC1 [Compound 144, 1-{5-fluoro-2-[3-(4-isopropyl-piperazin-1-yl)-phenylamino]-pyrimidin-4-yl}-1H-indole-3-carboxamide]
pIC50 [1]: > 9.00 | pIC50 [2]: 8.00 to 9.00 | pIC50 [3]: > 9.00 | pIC50 [4]: > 9.00 | pIC50 [5]: > 9.00 | pIC50 [6]: > 9.00 | pIC50 [7]: 8.00 to 9.00 | pIC50 [8]: > 9.00 | pIC50 [9]: > 9.00 | pIC50 [10]: > 9.00 | pIC50 [11]: > 9.00 | pIC50 [23]: > 9.00 | pIC50 [24]: > 9.00 | pIC50 [25]: > 9.00 | pIC50 [12]: > 9.00 | pIC50 [13]: > 9.00 | pIC50 [14]: > 9.00 | pIC50 [15]: > 9.00 | pIC50 [16]: 8.00 to 9.00 | pIC50 [17]: 8.00 to 9.00 | pIC50 [18]: 8.00 to 9.00 | pIC50 [19]: 8.00 to 9.00 | pIC50 [20]: 8.00 to 9.00 | pIC50 [21]: 8.00 to 9.00 | pIC50 [22]: > 9.00 | pIC50 [26, 27]: 8.00 to 9.00

CCN1CCN(c2cccc(Nc3ncc(F)c(-n4cc(C(N)=O)c5cc(OC)ccc54)n3)c2)CC1 [Compound 152, 1-{2-[3-(4-ethyl-piperazin-1-yl)-phenylamino]-5-fluoro-pyrimidin-4-yl}-5-methoxy-1H-indole-3-carboxamide]
pIC50 [1]: 8.00 to 9.00 | pIC50 [2]: 8.00 to 9.00 | pIC50 [3]: 8.00 to 9.00 | pIC50 [4]: > 9.00 | pIC50 [5]: > 9.00 | pIC50 [6]: 8.00 to 9.00 | pIC50 [7]: 8.00 to 9.00 | pIC50 [8]: > 9.00 | pIC50 [9]: 8.00 to 9.00 | pIC50 [10]: 8.00 to 9.00 | pIC50 [11]: > 9.00 | pIC50 [23]: > 9.00 | pIC50 [24]: > 9.00 | pIC50 [25]: > 9.00 | pIC50 [12]: > 9.00 | pIC50 [13]: > 9.00 | pIC50 [14]: > 9.00 | pIC50 [15]: > 9.00 | pIC50 [16]: 8.00 to 9.00 | pIC50 [17]: 8.00 to 9.00 | pIC50 [18]: 8.00 to 9.00 | pIC50 [19]: 8.00 to 9.00 | pIC50 [20]: 8.00 to 9.00 | pIC50 [21]: 8.00 to 9.00 | pIC50 [22]: 8.00 to 9.00 | pIC50 ([26]; Homo sapiens, A549, read-out: Inhibitory activity (IC50) on growth in vitro, A549): 8.00 to 9.00

CCN1CCN(c2cccc(Nc3ncc(F)c(-n4cc(C(N)=O)c5cc(F)ccc54)n3)c2)CC1 [Compound 161, 1-{2-[3-(4-ethyl-piperazin-1-yl)-phenylamino]-5-fluoro-pyrimidin-4-yl}-5-fluoro-1H-indole-3-carboxamide]
pIC50 [1]: 8.00 to 9.00 | pIC50 [2]: 8.00 to 9.00 | pIC50 [3]: 8.00 to 9.00 | pIC50 [4]: > 9.00 | pIC50 [5]: > 9.00 | pIC50 [6]: 8.00 to 9.00 | pIC50 [7]: 8.00 to 9.00 | pIC50 [8]: > 9.00 | pIC50 [9]: 8.00 to 9.00 | pIC50 [10]: 8.00 to 9.00 | pIC50 [11]: > 9.00 | pIC50 [23]: > 9.00 | pIC50 [24]: > 9.00 | pIC50 [25]: > 9.00 | pIC50 [12]: > 9.00 | pIC50 [13]: > 9.00 | pIC50 [14]: > 9.00 | pIC50 [15]: > 9.00 | pIC50 [16]: 8.00 to 9.00 | pIC50 [17]: 8.00 to 9.00 | pIC50 [18]: 8.00 to 9.00 | pIC50 [19]: 8.00 to 9.00 | pIC50 [20]: 8.00 to 9.00 | pIC50 [21]: 8.00 to 9.00 | pIC50 [22]: 8.00 to 9.00 | pIC50 [26, 27]: 8.00 to 9.00
